Measured values taken from US10722501B2 (BAYER AKTIENGESELLSCHAFT, priority 2016, dated 2020).

Columns and labels:
[1] = target: T1, recombinant full-length human prolyl endopeptidase (PREP) (Homo sapiens, UniProt P48147); assay: Biochemical human prolyl endopeptidase (PREP) assay with fluorescently labelled substrate; settings: substrate Z-Gly-Pro-AMC 50 μM, 32° C., 60 min; some as mean values from multiple independent determinations
T1 construct: To recombinant full-length human prolyl endopeptidase (PREP, R&D-Systems, 4308-SE); purchased R&D-Systems 4308-SE
T1 sequence (P48147 1-710): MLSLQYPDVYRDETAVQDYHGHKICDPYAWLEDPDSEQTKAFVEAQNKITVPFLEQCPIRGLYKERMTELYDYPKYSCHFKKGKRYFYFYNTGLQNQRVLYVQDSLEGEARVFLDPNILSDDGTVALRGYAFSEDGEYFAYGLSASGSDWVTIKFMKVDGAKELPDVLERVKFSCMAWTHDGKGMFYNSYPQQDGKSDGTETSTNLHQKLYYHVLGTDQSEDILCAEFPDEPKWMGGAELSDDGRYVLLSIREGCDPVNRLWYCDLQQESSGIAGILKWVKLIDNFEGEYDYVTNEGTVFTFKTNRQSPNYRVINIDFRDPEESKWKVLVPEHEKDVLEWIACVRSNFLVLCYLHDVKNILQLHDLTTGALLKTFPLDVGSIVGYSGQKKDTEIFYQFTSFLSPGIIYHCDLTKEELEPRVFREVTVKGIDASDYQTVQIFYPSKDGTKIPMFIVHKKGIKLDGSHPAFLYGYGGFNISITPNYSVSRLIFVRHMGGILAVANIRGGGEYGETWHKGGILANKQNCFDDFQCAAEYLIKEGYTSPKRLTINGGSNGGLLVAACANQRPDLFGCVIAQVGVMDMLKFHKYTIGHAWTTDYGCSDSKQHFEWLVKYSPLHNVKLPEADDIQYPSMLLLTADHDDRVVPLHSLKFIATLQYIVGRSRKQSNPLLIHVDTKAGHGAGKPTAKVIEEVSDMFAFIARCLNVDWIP
Procedure, shortened: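 0.4 nM (final, example) recombinant PREP in pH 7.5 Tris buffer with EDTA, GSH, BSA and Brij-35; compounds at 1 nM to 30 μM. Reaction started with 50 μM Z-Gly-Pro-AMC and followed by fluorescence (ex 360/em 465 nm) at 32° C for 60 min. IC50 interpolated from percent activity based on initial slopes.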

PGP = settings: COPD patients treated; cited from earlier work

IC50 [1] | SMILES | concentration of PGP in the sputum and serum (PGP)
0.54 nM | O=C([C@@H]1CCC(F)(F)c2nn(Cc3ccc(Cl)cn3)c(=O)n21)N1CC[C@H](F)C1 [Example 555, (5S)-2-[(5-Chloropyridin-2-yl)methyl]-8,8-difluoro-5-{[(3S)-3-fluoropyrrolidin-1-yl]carbonyl}-5,6,7,8-tetrahydro[1,2,4]triazolo[4,3-a]pyridin-3(2H)-one] | –
0.63 nM | O=C([C@@H]1CCC(F)(F)c2nn(Cc3ncc(Cl)cc3F)c(=O)n21)N1CC[C@H](F)C1 [Example 556, (5S)-2-[(5-chloro-3-fluoropyridin-2-yl)methyl]-8,8-difluoro-5-{[(3S)-3-fluoropyrrolidin-1-yl]carbonyl}-5,6,7,8-tetrahydro[1,2,4]triazolo[4,3-a]pyridin-3(2H)-one] | –
3.2 nM | O=C([C@@H]1CCC(F)(F)c2nn(Cc3ccc(Cl)nc3)c(=O)n21)N1CCC(F)(F)C1 [Example 557, (5S)-2-[(6-Chloropyridin-3-yl)methyl]-5-[(3,3-difluoropyrrolidin-1-yl)carbonyl]-8,8-difluoro-5,6,7,8-tetrahydro[1,2,4]triazolo[4,3-a]pyridin-3(2H)-one] | –
1.9 nM | O=C([C@@H]1CC=Cc2nn(Cc3ccc(C(F)(F)F)nc3)c(=O)n21)N1C[C@@H](F)[C@@H](F)C1 [Example 558, (5S)-5-{[(3R,4S)-3,4-Difluoropyrrolidin-1-yl]carbonyl}-2-{[6-(trifluoromethyl)pyridin-3-yl]methyl}-5,6-dihydro[1,2,4]triazolo[4,3-a]pyridin-3(2H)-one] | –
35 nM | O=C([C@@H]1CCCc2nn(Cc3cnc(C(F)(F)F)nc3)c(=O)n21)N1CC[C@H](F)C1 [Example 559, (5S)-5-{[(3S)-3-Fluoropyrrolidin-1-yl]carbonyl}-2-{[2-(trifluoromethyl)pyrimidin-5-yl]methyl}-5,6,7,8-tetrahydro[1,2,4]triazolo[4,3-a]pyridin-3(2H)-one] | –
0.43 nM | O=C([C@@H]1CCCc2nn(Cc3ncc(F)cc3Cl)c(=O)n21)N1CC[C@H](F)C1 [Example 560, (5S)-2-[(3-Chloro-5-fluoropyridin-2-yl)methyl]-5-{[(3S)-3-fluoropyrrolidin-1-yl]carbonyl}-5,6,7,8-tetrahydro[1,2,4]triazolo[4,3-a]pyridin-3(2H)-one] | –
0.62 nM | O=C([C@@H]1CCCc2nn(Cc3ncc(Cl)cc3F)c(=O)n21)N1CC[C@H](F)C1 [Example 568, (5S)-2-[(5-Chloro-3-fluoropyridin-2-yl)methyl]-5-{[(3S)-3-fluoropyrrolidin-1-yl]carbonyl}-5,6,7,8-tetrahydro[1,2,4]triazolo[4,3-a]pyridin-3(2H)-one] | –
2.3 nM | O=C([C@@H]1CCCc2nn(Cc3cncc(C(F)(F)F)c3)c(=O)n21)N1C[C@@H](F)[C@@H](F)C1 [Example 578, (5S)-5-{[(3R,4S)-3,4-Difluoropyrrolidin-1-yl]carbonyl}-2-{[5-(trifluoromethyl)pyridin-3-yl]methyl}-5,6,7,8-tetrahydro[1,2,4]triazolo[4,3-a]pyridin-3(2H)-one] | –
1.1 nM | O=C([C@@H]1CCCc2nn(Cc3cncc(C(F)(F)F)c3)c(=O)n21)N1CCC(F)(F)C1 [Example 579, (5S)-5-[(3,3-Difluoropyrrolidin-1-yl)carbonyl]-2-{[5-(trifluoromethyl)pyridin-3-yl]methyl}-5,6,7,8-tetrahydro[1,2,4]triazolo[4,3-a]pyridin-3(2H)-one] | –
0.3 nM | O=C([C@@H]1CCCc2nn(Cc3ncc(F)cc3F)c(=O)n21)N1CC[C@H](F)C1 [Example 581, (5S)-2-[(3,5-Difluoropyridin-2-yl)methyl]-5-{[(3S)-3-fluoropyrrolidin-1-yl]carbonyl}-5,6,7,8-tetrahydro[1,2,4]triazolo[4,3-a]pyridin-3(2H)-one] | –
14 nM | O=C([C@@H]1CCC(F)(F)c2nn(Cc3ccc(Cl)cn3)c(=O)n21)N1CCC(F)(F)C1 [Example 586, (5S)-2-[(5-Chloropyridin-2-yl)methyl]-5-[(3,3-difluoropyrrolidin-1-yl)carbonyl]-8,8-difluoro-5,6,7,8-tetrahydro[1,2,4]triazolo[4,3-a]pyridin-3(2H)-one] | –
6.4 nM | O=C([C@@H]1CCC(F)(F)c2nn(Cc3ccc(Cl)cn3)c(=O)n21)N1CC(F)C1 [Example 587, (5S)-2-[(5-Chloropyridin-2-yl)methyl]-8,8-difluoro-5-[(3-fluoroazetidin-1-yl)carbonyl]-5,6,7,8-tetrahydro[1,2,4]triazolo[4,3-a]pyridin-3(2H)-one] | –
18 nM | O=C([C@@H]1CCC(F)(F)c2nn(Cc3ncc(F)cc3F)c(=O)n21)N1CCC(F)(F)C1 [Example 588, (5S)-2-[(3,5-Difluoropyridin-2-yl)methyl]-5-[(3,3-difluoropyrrolidin-1-yl)carbonyl]-8,8-difluoro-5,6,7,8-tetrahydro[1,2,4]triazolo[4,3-a]pyridin-3(2H)-one] | –
0.35 nM | O=C([C@@H]1CCC(F)(F)c2nn(Cc3ncc(C(F)(F)F)cc3Cl)c(=O)n21)N1CC[C@H](F)C1 [Example 589, (5S)-2-{[3-Chloro-5-(trifluoromethyl)pyridin-2-yl]methyl}-8,8-difluoro-5-{[(3S)-3-fluoropyrrolidin-1-yl]carbonyl}-5,6,7,8-tetrahydro[1,2,4]triazolo[4,3-a]pyridin-3(2H)-one] | –
3.9 nM | O=C([C@@H]1CCC(F)(F)c2nn(Cc3ncc(C(F)(F)F)cc3Cl)c(=O)n21)N1CCC(F)(F)C1 [Example 590, (5S)-2-{[3-Chloro-5-(trifluoromethyl)pyridin-2-yl]methyl}-5-[(3,3-difluoropyrrolidin-1-yl)carbonyl]-8,8-difluoro-5,6,7,8-tetrahydro[1,2,4]triazolo[4,3-a]pyridin-3(2H)-one] | –
– | O=C(Nc1c(Cl)cncc1Cl)c1ccc(OC(F)F)c(OCC2CC2)c1 [roflumilast] | decrease
